According to patent US20220265658A1, “PHARMACEUTICAL COMPOSITION COMPRISING A TETRAHYDROPYRAZOLOPYRIMIDINONE COMPOUND” (Idorsia Pharmaceuticals Ltd., priority 2019, published 2022):

Assays:
[1] = log P measured in octanol/phosphate buffer saline pH 7.4; assay type: physicochemical
Excerpt: […]

C5AR1 = biological target: T1, C5AR1 (Homo sapiens, UniProt P21730); experiment: In vitro assay: CHO-K1 C5AR1 beta-arrestin cell line (PathHunter), antagonism of C5a; assay type: cell-based; conditions: 1-10 nM C5a agonist; geometric mean; read-out: antagonistic activity (IC50)
T1 construct: host or cells: CHO-K1
T1 sequence (P21730 1-350): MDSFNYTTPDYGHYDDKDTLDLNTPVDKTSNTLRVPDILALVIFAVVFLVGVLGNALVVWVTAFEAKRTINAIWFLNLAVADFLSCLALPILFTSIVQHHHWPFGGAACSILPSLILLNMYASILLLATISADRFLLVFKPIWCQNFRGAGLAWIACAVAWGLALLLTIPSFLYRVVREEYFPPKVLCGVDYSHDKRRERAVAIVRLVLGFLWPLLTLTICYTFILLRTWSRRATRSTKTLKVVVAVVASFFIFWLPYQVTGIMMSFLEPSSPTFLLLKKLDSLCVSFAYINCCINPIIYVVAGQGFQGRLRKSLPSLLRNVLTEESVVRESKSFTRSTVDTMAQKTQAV
Experimental: Adherent cells (CHO-K1 C5AR1 beta-arrestin cell line, DiscoverX, CA USA) are washed with PBS, detached by incubation with Dissociation Buffer (Gibco Cat #13151-014, 2 ml per 165 cm2 dish) for 3 minutes, then washed with 10 ml PBS (without Mg++ and Ca++) and counted. 7500 cells/384-well are seeded in 384-well plates (Cell culture plate MTP384 white Polystyrene, Corning, Cat #3570) in 20 μl/well Cell plating medium (F12 HAMs/10% FCS/1% P/S) and incubated at 37° C./5% CO2/24 h.
5 μl Antagonist at 6-fold end concentration or DMSO control is added to assay medium and subsequently 5 μl 1-10 nM C5a agonist at 6 fold end concentration. Cells are centrifuged for 1 min at 1000 rpm and incubated for 1.5 hour in at 37° C. Plates are equilibrated at room temperature for several minutes before adding 12 μl/well Detection Reagent (PathHunter Detection Kit, DiscoverX, Cat #93-0001). Plates are centrifuged for 1 min at 1000 rpm and incubated for 45 minutes at RT before being measured on a Fluostar Optima, BMG Labtech. IC50 values are calculated from a serial dilution range of antagonist using inhouse software and given in nmol/l.
The calculated IC50 values may fluctuate depending on the daily cellular assay performance. Fluctuations of this kind are known to those skilled in the art. Average IC50 values from several measurements are given as geometric mean values.

[2] = Gravimetric vapour sorption (GVS) hygroscopicity; assay type: physicochemical; conditions: 25° C., mass change 40% to 80% RH, first adsorption scan
Experimental: Measurements are performed on a multi sample instrument SPS-100n (ProUmid, Ulm, Germany) operated in stepping mode at 25° C. The sample is allowed to equilibrate at 40% RH before starting a pre-defined humidity program (40-0-95-0-95-40% RH, steps of 5% ARH and with a maximal equilibration time of 24 hours per step are applied). About 20 to 30 mg of each sample is used. The hygroscopic classification is done on the basis of the European Pharmacopeia Technical Guide (1999, page 86), e.g., Non-hygroscopic: increase in mass is less than 0.2% mass/mass; slightly hygroscopic: increase in mass is less than 2% and equal to or greater than 0.2% mass/mass; hygroscopic: increase in mass is less than 15% and equal to or greater than 2% mass/mass. The mass change between 40% relative humidity and 80% relative humidity in the first adsorption scan is considered.

[3] = Stability testing of solid COMPOUND (powder in glass vial, HPLC 1 area vs reference stored at -20° C.); assay type: physicochemical; conditions: 260 nm
Experimental: Samples were directly analyzed by HPLC without dilution (expected concentration 1000 μg/mL). The HPLC area of each treated sample was compared to the HPLC area of the reference samples.
HPLC system: High pressure mixing Shimadzu Prominence (HPLC_08_DAD); Flow: 1.5 mL/min; Column temperature: 50° C.; Autosampler temperature: 25° C.; Injection volume: 3.0 μL; Column: Waters XBridge BEH C18 2.5 μm 2.1*50 mm Column XP; Wavelength: DAD 260 nm

For `Cc1cccc(F)c1N1CCC(N2Cc3cn(CC(C)(F)F)nc3N(Cc3ccccc3C(F)(F)F)C2=O)CC1` [COMPOUND, 2-(2,2-Difluoro-propyl)-5-[1-(2-fluoro-6-methyl-phenyl)-piperidin-4-yl]-7-(2-trifluoromethyl-benzyl)-2,4,5,7-tetrahydro-pyrazolo[3,4-d]pyrimidin-6-one], the logP [1] was 6.9 and the IC50 (C5AR1) was 11 nM.

For `Cc1cccc(F)c1N1CCC(N2Cc3cn(CC(C)(F)F)nc3N(Cc3ccccc3C(F)(F)F)C2=O)CC1` [COMPOUND in crystalline form 1, 2-(2,2-Difluoro-propyl)-5-[1-(2-fluoro-6-methyl-phenyl)-piperidin-4-yl]-7-(2-trifluoromethyl-benzyl)-2,4,5,7-tetrahydro-pyrazolo[3,4-d]pyrimidin-6-one], the “Hygroscopicity as measured by GVS” value [2] was “non-hygroscopic”, the “HPLC 1 area compared to a reference that was stored at −20° C. for the same amount of time” value ([3]; closed vial for 30 days at 40° C. and 75% relative humidity, listed as Form 1) was 100% and the “HPLC 1 area compared to a reference that was stored at −20° C. for the same amount of time” value ([3]; closed vial for 30 days at room temperature and day light exposure, listed as Form 1) was 100%.

With `Cc1cccc(F)c1N1CCC(N2Cc3cn(CC(C)(F)F)nc3N(Cc3ccccc3C(F)(F)F)C2=O)CC1` [Amorphous, 2-(2,2-Difluoro-propyl)-5-[1-(2-fluoro-6-methyl-phenyl)-piperidin-4-yl]-7-(2-trifluoromethyl-benzyl)-2,4,5,7-tetrahydro-pyrazolo[3,4-d]pyrimidin-6-one] the “HPLC 1 area compared to a reference that was stored at −20° C. for the same amount of time” value ([3]; closed vial for 30 days at 40° C. and 75% relative humidity) was 79% and the “HPLC 1 area compared to a reference that was stored at −20° C. for the same amount of time” value ([3]; closed vial for 30 days at room temperature and day light exposure) was 57%.
